{"source": "patent US9012652B2", "about": "“Processes for producing cycloalkylcarboxamido-pyridine benzoic acids” (Vertex Pharmaceuticals Incorporated, priority 0208, dated 2015)", "test": "solubility in water", "format": "physicochemical", "conditions": "stated in words in the process description", "note": "Structures can show the parent of a compound that is named as a salt."}
{"smiles": "Cc1ccc(NC(=O)C2(c3ccc4c(c3)OC(F)(F)O4)CC2)nc1-c1cccc(C(=O)O)c1", "note": "[compound 9, 3-(6-(1-(2,2-difluorobenzo[d][1,3]dioxol-5-yl)cyclopropanecarboxamido)-3-methylpyridin-2-yl)benzoic acid.HCL salt]", "values": [{"measurement": "solubility in water", "result": "sparingly soluble"}]}
